For twelve compounds, Dmax and inhibition results are on record in US20240124418A1 (BioTheryX, Inc., priority 2020, published 2024).

The target in assay [1] is T1, PDE4B (Homo sapiens, UniProt Q07343).
T1 construct: endogenous in cells; host or cells: A549
Nature of the assay: Protein degradation assay, western blot, PDE4B in A549 cells. The class given is cell-based. To be noted: 24 h treatment, 'as high as about' = upper value for the group, read-out: PDE4B degradation relative to DMSO. Here is the method: Example B2. Protein Degradation Assay
A549 cells were grown in RPMI 1640 media supplemented with 10% fetal bovine serum, streptomycin, and penicillin. The cells were plated in 6-well plates at 300,000 cells/well in the growth media. After overnight incubation, the cells were treated with DMSO (control) or a compound at predetermined concentrations (e.g., 10 nM, 100 nM, 1 μM, 3 μM, or 10 μM) for 24 h at 37° C. under 5% CO2. Whole cell extracts were prepared using an immunoprecipitation (IP) lysis buffer. The cells were washed once in PBS, and the cell pellets were resuspended in the IP lysis buffer and incubated for 15 min on ice. Cells debris was removed by centrifugation and the cleared whole cell lysates were transferred to new tubes for further analysis.
For a western blot analysis, the whole cell protein extracts were separated on 4-12% SDS-polyacrylamide gels, transferred to nitrocellulose, and probed with primary antibodies. Membranes were subsequently washed and probed with IRDYE® secondary antibodies. The signals were detected using an ODYSSEY® Imaging System. The antibodies used in the assay included anti-PDE4B antibody; anti-PDE4D antibodies (top, bottom, and short isoform); β-actin mouse monoclonal antibody; IRDYE® 680RD goat anti-rabbit antibody; and IRDYE® 800CW goat anti-mouse antibody. The compounds provided herein are PDE4 protein degraders.

Assay [2] concerns TNF-α. Nature of the assay: Cell-based TNF-α inhibition assay (LPS-induced PBMCs, Meso Scale). To be noted: PBMC, PBMCs pretreated 1 h, LPS 100 ng/mL 18-24 h, percentage of stimulated DMSO control; for inhibition at 0.1 µM: compound concentration 0.1 μM; for inhibition at 1 µM: compound concentration 1 μM. In a few lines:
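Thawed primary PBMCs (200,000 cells/well, RPMI 1640 with 10% FBS) were pretreated with compound for 1 h, then stimulated with 100 ng/mL LPS for 18–24 h. Supernatant TNF-α was measured by Meso Scale, and activity was expressed as percent inhibition relative to the stimulated DMSO control.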

T1 sequence (Q07343 whole entry): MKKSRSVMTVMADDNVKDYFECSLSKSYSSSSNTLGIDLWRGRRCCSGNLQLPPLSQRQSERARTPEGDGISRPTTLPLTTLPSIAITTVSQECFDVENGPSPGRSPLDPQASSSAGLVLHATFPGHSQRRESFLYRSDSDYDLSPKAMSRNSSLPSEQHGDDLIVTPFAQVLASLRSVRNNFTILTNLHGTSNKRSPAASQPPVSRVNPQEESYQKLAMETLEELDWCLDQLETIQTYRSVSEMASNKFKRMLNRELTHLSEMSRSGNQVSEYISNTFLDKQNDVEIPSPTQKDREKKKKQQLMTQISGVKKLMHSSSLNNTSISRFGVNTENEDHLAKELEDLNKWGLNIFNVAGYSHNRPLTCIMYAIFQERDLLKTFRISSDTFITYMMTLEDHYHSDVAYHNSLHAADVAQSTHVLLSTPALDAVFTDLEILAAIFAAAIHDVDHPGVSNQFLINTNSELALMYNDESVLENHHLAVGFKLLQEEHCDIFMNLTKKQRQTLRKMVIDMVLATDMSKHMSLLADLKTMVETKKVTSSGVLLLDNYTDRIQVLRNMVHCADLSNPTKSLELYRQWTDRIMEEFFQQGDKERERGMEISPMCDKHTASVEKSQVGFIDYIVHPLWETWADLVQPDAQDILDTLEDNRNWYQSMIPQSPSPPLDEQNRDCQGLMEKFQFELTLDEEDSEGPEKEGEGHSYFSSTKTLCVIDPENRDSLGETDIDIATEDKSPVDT

One may read the inhibition as the share of the control response that was lost under treatment. As to `CCOc1cc([C@@H](CS(C)(=O)=O)N2C(=O)c3cccc(NC(=O)CC4CN(Cc5ccc(OCc6scc7c6CN(C6CCC(=O)NC6=O)C7=O)cc5)CCO4)c3C2=O)ccc1OC` (stereo partly drawn) [Compound A40, 2-{4-[(4-{[5-(2,6-Dioxopiperidin-3-yl)-4-oxo-4H,5H,6H-thieno[3,4-c]pyrrol-1-yl]methoxy}phenyl)methyl]morpholin-2-yl}-N-{2-[(1S)-1-(3-ethoxy-4-methoxyphenyl)-2-methanesulfonylethyl]-1,3-dioxo-2,3-dihydro-1H-isoindol-4-yl}acetamide], in assay [1], the Dmax was at most 70%. For the same compound, in assay [2], the inhibition at 0.1 µM is at least 60% and the inhibition at 1 µM was at least 60%.
As to `O=C1CCC(N2Cc3c(NCCCOCCOCCOCCOc4ccc(C(=O)Nc5c(Cl)cncc5Cl)cc4OCC4CC4)cccc3C2=O)C(=O)N1` (centres unmarked) [Compound B9, 3-(Cyclopropylmethoxy)-N-(3,5-dichloropyridin-4-yl)-4-(2-(2-(2-(3-((2-(2,6-dioxopiperidin-3-yl)-1-oxoisoindolin-4-yl)amino)propoxy)ethoxy)ethoxy)ethoxy)benzamide], the Dmax in assay [1] was at most 70%. In assay [2], the inhibition at 0.1 µM is at least 60% and the inhibition at 1 µM is at least 60%.
Consider `O=C1CCC(N2Cc3c(cc(F)cc3C3CCN(CCCOc4cc(C(=O)Nc5c(Cl)cncc5Cl)ccc4OC(F)F)CC3)C2=O)C(=O)N1` (centres unmarked) [Compound B11, N-(3,5-Dichloropyridin-4-yl)-4-(difluoromethoxy)-3-(3-(4-(2-(2,6-dioxopiperidin-3-yl)-6-fluoro-1-oxoisoindolin-4-yl)piperidin-1-yl)propoxy)benzamide], for which the Dmax in assay [1] was at most 70%. In assay [2], the inhibition at 0.1 µM was at least 60% and the inhibition at 1 µM was at least 60%.
Regarding `CCOc1cc([C@@H](CS(C)(=O)=O)N2C(=O)c3cccc(NC(=O)CCCCCCCCCCNCc4ccc(OCc5scc6c5CN(C5CCC(=O)NC5=O)C6=O)cc4)c3C2=O)ccc1OC` (stereo partly drawn) [Compound A43, 11-{[(4-{[5-(2,6-Dioxopiperidin-3-yl)-4-oxo-4H,5H,6H-thieno[3,4-c]pyrrol-1-yl]methoxy}phenyl)methyl]amino}-N-{2-[(1S)-1-(3-ethoxy-4-methoxyphenyl)-2-methanesulfonylethyl]-1,3-dioxo-2,3-dihydro-1H-isoindol-4-yl}undecanamide], the Dmax in assay [1] was at most 70%. Also, in assay [2], the inhibition at 0.1 µM was at least 60% and the inhibition at 1 µM is at least 60%.
In the case of `O=C1CCC(N2Cc3cc(C4CCN(CCOc5cc(C(=O)Nc6c(Cl)cncc6Cl)ccc5OC(F)F)CC4)c(F)cc3C2=O)C(=O)N1` (centres unmarked) [Compound B15, N-(3,5-Dichloropyridin-4-yl)-4-(difluoromethoxy)-3-(2-{4-[2-(2,6-dioxo-piperidin-3-yl)-6-fluoro-1-oxo-2,3-dihydro-1H-isoindol-5-yl]piperidin-1-yl}ethoxy)benzamide], the Dmax in assay [1] was at most 70%. Also, in assay [2], the inhibition at 0.1 µM was at least 60% and the inhibition at 1 µM is at least 60%.
On to `CCOc1cc([C@@H](CS(C)(=O)=O)N2C(=O)c3cccc(NC(=O)CCOCCOCCNc4cccc5c4C(=O)N(C4CCC(=O)NC4=O)C5=O)c3C2=O)ccc1OC` (stereo partly drawn) [Compound A9, 3-(2-(2-((2-(2,6-Dioxopiperidin-3-yl)-1,3-dioxoisoindolin-4-yl)amino)-ethoxy)ethoxy)-N-(2-((S)-1-(3-ethoxy-4-methoxyphenyl)-2-(methylsulfonyl)ethyl)-1,3-dioxoisoindolin-4-yl)propanamide], for which the Dmax in assay [1] was at most 70%. Moreover, in assay [2], the inhibition at 0.1 µM was at least 60% and the inhibition at 1 µM is at least 60%.
Take `CCOc1cc([C@@H](CS(C)(=O)=O)N2C(=O)c3cccc(NCCCCCCCCCNCc4ccc(OCc5scc6c5CN(C5CCC(=O)NC5=O)C6=O)cc4)c3C2=O)ccc1OC` (stereo partly drawn) [Compound A44, 4-[(9-{[(4-{[5-(2,6-Dioxopiperidin-3-yl)-4-oxo-4H,5H,6H-thieno[3,4-c]pyrrol-1-yl]methoxy}phenyl)methyl]amino}nonyl)amino]-2-[(1S)-1-(3-ethoxy-4-methoxyphenyl)-2-methanesulfonylethyl]-2,3-dihydro-1H-isoindole-1,3-dione]: in assay [1], the Dmax is at most 70%. For the same compound, in assay [2], the inhibition at 0.1 µM is at least 60% and the inhibition at 1 µM is at least 60%.
Regarding `CCOc1cc([C@@H](CS(C)(=O)=O)N2C(=O)c3cc(CCCCCCCN4CCC(c5cc(F)cc6c5CN(C5CCC(=O)NC5=O)C6=O)CC4)cc(NC(C)=O)c3C2=O)ccc1OC` (stereo partly drawn) [Compound A1, N-(6-(7-(4-(2-(2,6-Dioxopiperidin-3-yl)-6-fluoro-1-oxoisoindolin-4-yl)piperidin-1-yl)heptyl)-2-((S)-1-(3-ethoxy-4-methoxyphenyl)-2-(methylsulfonyl)ethyl)-1,3-dioxoisoindolin-4-yl)acetamide], the Dmax in assay [1] is at most 70%. The inhibition at 0.1 µM in assay [2] is at least 60%.
Turning to `O=C1CCC(Nc2cccc(NC(=O)CN3CCN(CCOc4cc(C(=O)Nc5c(Cl)cncc5Cl)ccc4OC(F)F)CC3)c2)C(=O)N1` (centres unmarked) [Compound B24, N-(3,5-Dichloropyridin-4-yl)-4-(difluoromethoxy)-3-(2-(4-(2-((3-((2,6-dioxopiperidin-3-yl)amino)phenyl)amino)-2-oxoethyl)piperazin-1-yl)ethoxy)benzamide], in assay [1], the Dmax was at most 70%. Besides, in assay [2], the inhibition at 0.1 µM was at least 60% and the inhibition at 1 µM was at least 60%.
In the case of `CCOc1cc([C@@H](CS(C)(=O)=O)N2C(=O)c3cccc(NC(=O)CCOCCOCCNCc4ccc(OCc5scc6c5CN(C5CCC(=O)NC5=O)C6=O)cc4)c3C2=O)ccc1OC` (stereo partly drawn) [Compound A41, 3-[2-(2-{[(4-{[5-(2,6-Dioxopiperidin-3-yl)-4-oxo-4H,5H,6H-thieno[3,4-c]pyrrol-1-yl]methoxy}phenyl)methyl]amino}ethoxy)ethoxy]-N-{2-[(1S)-1-(3-ethoxy-4-methoxyphenyl)-2-methanesulfonylethyl]-1,3-dioxo-2,3-dihydro-1H-isoindol-4-yl}propanamide], the Dmax in assay [1] was at most 70%. In addition, in assay [2], the inhibition at 0.1 µM lay in the range of 40 to 60% and the inhibition at 1 µM was at least 60%.
In the same order, the values of `CCOc1cc([C@@H](CS(C)(=O)=O)N2C(=O)c3cccc(NC(=O)CCCCCCCN4CCC(c5cc6c(cc5F)C(=O)N(C5CCC(=O)NC5=O)C6)CC4)c3C2=O)ccc1OC` (stereo partly drawn) [Compound A22, 8-{4-[2-(2,6-Dioxopiperidin-3-yl)-6-fluoro-1-oxo-2,3-dihydro-1H-isoindol-5-yl]piperidin-1-yl}-N-{2-[(1S)-1-(3-ethoxy-4-methoxyphenyl)-2-methanesulfonylethyl]-1,3-dioxo-2,3-dihydro-1H-isoindol-4-yl}octanamide] are at most 70%, at least 60% and at least 60%.
With `O=C1CCC(N2Cc3c(cc(F)cc3C3CCN(CCCCCCCOc4cc(C(=O)Nc5c(Cl)cncc5Cl)ccc4OC(F)F)CC3)C2=O)C(=O)N1` (centres unmarked) [Compound B1, N-(3,5-Dichloropyridin-4-yl)-4-(difluoromethoxy)-3-((7-(4-(2-(2,6-dioxopiperidin-3-yl)-6-fluoro-1-oxoisoindolin-4-yl)piperidin-1-yl)heptyl)oxy)benzamide], the Dmax in assay [1] is at most 70%. In assay [2], the inhibition at 0.1 µM is under 20% and the inhibition at 1 µM was under 20%.
